Structures are written as SMILES. Like-named read-outs stand apart in the source and are kept apart here.

The text below walks through data of patent US9611223B2, “3-aryl-5-substituted-isoquinolin-1-one compounds and their therapeutic use” (INSTITUTE OF CANCER RESEARCH: ROYAL CANCER HOSPITAL (THE), priority 2013, dated 2017).

The subject of one assay is Wnt signalling. The experiment in a line: Wnt-Luciferase Reporter Assay. The class given is cell-based. As to conditions: DLD1-Wnt-Luc cells, 20-22 hours. The protocol: Wnt-Luciferase Reporter Assay
A Wnt dependent cell line (i.e., DLD1 colorectal adenocarcinoma cell line) was transduced with replication incompetent VSV-g pseudotyped lentiviral particles expressing the firefly luciferase gene under the control of minimal cytomegalovirus (mCMV) promoter and tandem repeats of the TCF/LEF transcriptional response element.
DLD1-Wnt-Luc cells were seeded (5000 cells/well) in a 96-well plate (Greiner Bio-One, cat. no. 655098) in Dubelco's Modified Eagle Medium (DMEM, SFBCO/Invitrogen, cat no. 41965-039) supplemented with Fetal Bovine Serum (FBS, 10%, SFBCO/Invitrogen, cat no. 10108-165). After overnight incubation, the media was replaced with OptiMEM (SFBCO/Invitrogen, cat no. 11058-021) supplemented with FBS (0.5%) and non-essential amino acids (1%, SFBCO/Invitrogen, cat no. 11140-035) and the appropriate putative TNKS inhibitor at a final concentration of 10 μM, 3 μM, 1 μM, 0.30 μM, 0.10 μM, 0.030 μM, 0.010 μM and 0 μM with 1% (v/v) final DMSO in double-triplicate wells. Positive control includes the use of XAV-939 (Maybridge, FisherScientific, 3,5,7,8-tetrahydro-2-[4-(trifluoromethyl)phenyl]-4H-thiopyrano[4,3-d]pyrimidin-4-one, cat. no. RF03920, see: Huang et al., Nature, 2009, Vol. 461, pp. 614-620). Cells were incubated for 20-22 hours before assaying for luciferase (first set of triplicates: Wnt activation) and viability (second set of triplicates: cell survival for data normalisation vs Wnt-activation) using ONE-Glo (Promega, cat. no. E6110) and CellTiter-Glo (Promega, cat. no. G7570) reagents consecutively. The assay was measured using a Victor^2 plate reader. The data were normalised to the DMSO control and were expressed as % Wnt activity as a function of inhibitor dose. Dose response curves used to determine IC50 values were Log transformed and analysed by non-linear regression analysis (variable slope) using Prism (GraphPad Software, Inc).

Another assay has as its target T1, TNKS1 (Homo sapiens, UniProt O95271, M1266I).
T1 construct: expresses the active PARP domain of TNKS1 as a polyhistidine tagged protein; made in house; host or cells: E. coli Rosetta2(DE3)
The experiment in a line: TNKS1/PARP Biochemical Assay. The protocol: TNKS1/PARP Biochemical Assay
Tankyrase activity was assayed using a 96-well format HT Universal Chemiluminescent PARP Assay Kit (Trevigen, Inc, cat. no. 4676-096-K) according to the manufacturer's instructions. In short, tankyrase/PARP activity is quantified by the incorporation of biotinylated nicotinamide adenine dinucleotide (biotin-NAD^+) onto the immobilised pseudo substrate, Histone. The extent of poly(Biotin-ADP)ribosylation (PARylation) in the presence of increasing dose of inhibitor is then quantified by binding of streptavidin conjugated horse radish peroxidase (strep-HRP) followed by chemiluminescent detection.
Prior to assay initiation, inhibitor stocks were prepared in aqueous DMSO (10% (v/v)) from 5 millimolar (mM) stock in 100% DMSO (Sigma Aldrich, cat. no. 265855) as 10× concentrations. For the primary assay (i.e., single dose at 1 micromolar (μM) final concentration) this corresponded to 10 μM in 10% DMSO. For IC50 determination, this corresponded to 100 μM, 30 μM, 10 μM, 3.0 μM, 1.0 μM, 0.30 μM, 0.10 μM and 0 μM in 10% DMSO for final concentrations of 10 μM, 3.0 μM, 1.0 μM, 0.30 μM, 0.10 μM, 0.030 μM, 0.010 μM, and 0 μM with 1% (v/v) final DMSO. The assay was initiated by the addition of 10× inhibitor (5 microliters (μL)) or 10% aqueous DMSO (5 μL) to triplicate wells. Twenty microliters of diluted TNKS1 protein (200 nanomolar (nM) final conc.) in PARP buffer (Trevigen, Inc, cat. no. 4671-096-02) was added to each histone coated well, which was previously hydrated with PARP buffer. Triplicate wells with 1% DMSO/buffer alone (no enzyme) were also added as a measure of assay ‘noise’. Positive control for PARP inhibition included the addition of 4-amino-1,8-naphthalimide (Sigma Aldrich, cat. no A0966) in corresponding doses.
The mixture was incubated for 10 minutes at room temperature and the PARylation reaction initiated by the addition of PARP cocktail (25 μL, Trevigen, Inc) containing biotin-NAD^+ (Trevigen, Inc, cat. no. 4670-500-01), activated DNA (Trevigen, Inc, cat. no. 4671-096-06) and PARP buffer. The reaction was incubated for 1.5 hours (for TNKS1) or 1 hour (for PARP1) at room temperature. The reaction mixture was then removed by aspiration and the wells washed (3×200 μL) with phosphate buffered saline containing Triton X-100 (0.1% (v/v), Sigma Aldrich cat. no. T8787). The wells were then washed (3×200 μL) with phosphate buffered saline and then incubated with strep-HRP (50 μL, Trevigen, Inc, cat. no. 4800-30-06) in strep-diluent (1:500 dilution, Trevigen Inc, cat. no. 4671-096-04) for 1 hour at room temperature. The Strep-HRP mixture was then aspirated and the wells washed (3×200 μL) with phosphate buffered saline containing Triton X-100 (0.1% (v/v)) followed by phosphate buffered saline (3×200 μL) and then incubated with PeroxyGlow™ reagent (100 μL, Trevigen, Inc, cat. nos. 4675-096-01, 4675-096-02, room temperature, mixed 1:1).
The amount of light emitted as a result of the peroxidase-chemiluminescent reagent reaction was in proportion to the extent of poly(Biotin-ADP)ribosylation and was immediately measured with a Victor^2 plate reader (Perkin Elmer, luminescence detection assay, luminescent units described as ‘Counts Per Second’ (CPS)). The data were normalised to the DMSO control after subtraction of ‘noise’ and was expressed as % PARP activity as a function of inhibitor dose. Inhibition was expressed as 100%−(% PARP activity). Dose response curves used to determine IC50 values were Log transformed and analysed by non-linear regression analysis (variable slope) using Prism (GraphPad Software, Inc) and were presented as IC50 with 95% confidence interval to determine relative potency.
Tankyrase1 (pNIC-Bsa4-TNKS1^PARP) expression construct was obtained from the Structural Genomics Consortium (SGC) and expresses the active PARP domain of TNKS1 as a polyhistidine tagged protein. […]

Another assay has as its system COLO320DM cells. The experiment in a line: Tumour Cell Inhibition Assay (COLO320DM cells). Type of assay: cell-based. As to conditions: Homo sapiens, COLO 320DM, 120 h, five day exposure, read-out: cell inhibitory SF50 (COLO320DM). The method, then:
(§1) Tumour Cell Inhibition in Colorectal Tumour Cells
(§2) In order to determine the efficacy of acute dosing of putative TNKS inhibitors, five day exposure cell viability assays were carried out. This included the sparse seeding of cells in a 96-well plate followed by continuous dosing of cells over a five day period.
(§3) Appropriate cell lines (HT55, COLO320DM and SW620) were seeded at 500 cells/well in a 96-well plate in MEM (HT55), RPMI (COLO320DM) or DMEM (SW620) supplemented with FBS. After overnight incubation, cells were treated with the appropriate putative TNKS inhibitor in 6 or 10 concentrations ranging from 0 μM to 10 μM at 0.2% final DMSO concentration in appropriate media supplemented with 10% or 0.5% FBS. Dosages were carried out in triplicate. Termination of the assay and measurement of cell viability was achieved by the use of Cell Titre Glo reagent and luminescence measurement on an appropriate plate reader.
(§4) Dose response curves used to determine SF50 values were Log transformed and analysed by non-linear regression analysis (variable slope) using Prism (GraphPad Software, Inc).

The subject of another assay is HT55 cells. The experiment in a line: Tumour Cell Inhibition Assay (HT55 cells). Type of assay: cell-based. The following applies: Homo sapiens, HT55, 120 h, read-out: cell inhibitory SF50 (HT55). The method, then: as §1, §2, §3, §4
Setting [1] is: Tumour Cell Inhibition Assay, five day exposure.

T1 sequence (O95271 1112-1317 M1266I): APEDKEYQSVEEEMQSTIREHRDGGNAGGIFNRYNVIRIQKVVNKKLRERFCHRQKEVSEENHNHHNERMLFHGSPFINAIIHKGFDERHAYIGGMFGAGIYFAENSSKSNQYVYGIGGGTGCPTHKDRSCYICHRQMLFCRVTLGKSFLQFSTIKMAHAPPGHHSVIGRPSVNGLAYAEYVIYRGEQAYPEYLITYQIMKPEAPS

Regarding `N#Cc1cccc2c(=O)[nH]c(-c3ccc(CN4CCNCC4)cc3)cc12` [IQ-050, 1-Oxo-3-(4-piperazin-1-ylmethyl-phenyl)-1,2-dihydro-isoquinoline-5-carbonitrile], the IC50 in the assay with Wnt signalling was less than 300 nM.
For the compound `N#Cc1cccc2c(=O)[nH]c(-c3ccc(Cn4cccn4)cc3)cc12` [IQ-021], the IC50 at TNKS1 is less than 50 nM; in the assay with Wnt signalling, less than 300 nM.
`N#Cc1cccc2c(=O)[nH]c(-c3cnc(N4CCN(C(=O)C5CC5)CC4)nc3)cc12` [IQ-007, 3-[2-(4-Cyclopropanecarbonyl-piperazin-1-yl)-pyrimidin-5-yl]-1-oxo-1,2-dihydro-isoquinoline-5-carbonitrile]: the IC50 at TNKS1 was less than 50 nM; in the assay with Wnt signalling it was less than 300 nM.
In the case of `CN1CCN(C(=O)Cc2ccc(-c3cc4c(C#N)cccc4c(=O)[nH]3)cc2)CC1` [IQ-037], the IC50 on TNKS1 was less than 50 nM; in the assay with Wnt signalling it was less than 300 nM; with COLO320DM cells, less than 5000 nM.
The corresponding values for `CN1CCN(C(=O)Cc2ccc(-c3cc4c(C#N)cc(F)cc4c(=O)[nH]3)cc2)CC1` [IQ-036] are less than 50 nM, less than 300 nM and less than 5000 nM.
Regarding `N#Cc1cccc2c(=O)[nH]c(-c3ccc(Cn4nccn4)cc3)cc12` [IQ-027], the IC50 on TNKS1 is less than 100 nM; with Wnt signalling it was less than 300 nM; in the assay on COLO320DM cells, less than 5000 nM.
With `N#Cc1cccc2c(=O)[nH]c(-c3ccc(Cn4ccnc4N)cc3)cc12` [IQ-018], the IC50 against TNKS1 was less than 50 nM; in the assay with Wnt signalling it was less than 300 nM; with COLO320DM cells, less than 5000 nM; in the assay on HT55 cells (setting [1]), less than 5000 nM.
In the case of `Cc1nnc(NCc2ccc(-c3cc4c(C#N)cccc4c(=O)[nH]3)cc2)o1` [IQ-045, 3-{4-[5-Methyl-[1,3,4-oxadiazol-2-ylamino)methyl]phenyl}-1-oxo-1,2-dihydroisoquinoline-5-carbonitrile], the IC50 against TNKS1 was less than 50 nM; with Wnt signalling it was less than 300 nM; in the assay on COLO320DM cells, less than 5000 nM.
On to `N#Cc1cccc2c(=O)[nH]c(-c3ccc(N4CCNCC4)cc3)cc12` [IQ-054], for which the IC50 is less than 50 nM on TNKS1 and less than 5000 nM with HT55 cells.
On to `Cc1nnc(C2CCN(Cc3ccc(-c4cc5c(C#N)cccc5c(=O)[nH]4)cc3)CC2)o1` [IQ-041], for which the IC50 is less than 50 nM at TNKS1, less than 300 nM with Wnt signalling and less than 5000 nM in the assay with HT55 cells.
Take `COCCN1CCN(C(=O)c2ccc(-c3cc4c(C#N)cccc4c(=O)[nH]3)cc2)CC1` [IQ-035]: the results for the IC50 against TNKS1, in the assay with Wnt signalling and in the assay on COLO320DM cells were less than 50 nM, less than 300 nM and less than 5000 nM, respectively.
In the case of `N#Cc1cccc2c(=O)[nH]c(-c3ccc(N4CCNCC4)nc3)cc12` [IQ-052], the IC50 at TNKS1 was less than 100 nM; in the assay on Wnt signalling it was less than 300 nM; in the assay on COLO320DM cells, less than 5000 nM.
In the case of `CN1CCCN(Cc2ccc(-c3cc4c(C#N)cccc4c(=O)[nH]3)cc2)CC1` [IQ-048], the results for the IC50 against TNKS1, with COLO320DM cells and in the assay on HT55 cells (setting [1]) were less than 50 nM, less than 5000 nM and less than 5000 nM, respectively.
On to `N#Cc1cccc2c(=O)[nH]c(-c3ccc(C(=O)N4CCNCC4)cc3)cc12` [IQ-004, 1-Oxo-3-[4-(piperazine-1-carbonyl)-phenyl]-1,2-dihydro-isoquinoline-5-carbonitrile], for which the IC50 against TNKS1 is less than 50 nM; in the assay with HT55 cells (setting [1]), less than 5000 nM.
On to `N#Cc1cccc2c(=O)[nH]c(-c3ccc(Cn4ccnc4CO)cc3)cc12` [IQ-015, 3-[4-(2-Hydroxymethyl-imidazol-1-ylmethyl)-phenyl]-1-oxo-1,2-dihydro-isoquinoline-5-carbonitrile], for which the IC50 at TNKS1 is less than 50 nM; with COLO320DM cells, less than 5000 nM; in the assay on HT55 cells (setting [1]) it was less than 5000 nM.
In the case of `CN1CCC(N(C)C(=O)c2ccc(-c3cc4c(C#N)cccc4c(=O)[nH]3)cc2)CC1` [IQ-005], the IC50 against TNKS1 was less than 50 nM; in the assay on Wnt signalling it was less than 300 nM; with COLO320DM cells it was less than 5000 nM.
As to `N#Cc1cccc2c(=O)[nH]c(-c3ccc(CN4CC5CCC(C4)N5)cc3)cc12` [IQ-003], the IC50 at TNKS1 was less than 100 nM; with Wnt signalling, less than 300 nM; in the assay with COLO320DM cells, less than 5000 nM.
